This is an account of results in patent US11306117B2, “Whitening composition containing novel quercetin-based compound” (AMOREPACIFIC CORPORATION, priority 2017, dated 2022).

This assay has as its system Mel-Ab cell line. The assay is described as follows: Inhibition of melanogenesis in Mel-Ab cells (method of Dooley). The assay is classed as cell-based, C57BL/6. To be noted: melanin by absorbance at 400 nm after 5 days. Here is the method:
The effects of New Materials 31 and 32 on inhibiting melanogenesis were compared with Kojic acids which have been known to have an excellent skin whitening effect, and measured.
Specifically, the degree of melanogenesis in cells was measured by a method of Dooley. As the cell line, Mel-Ab cell line (Falcon, U.S.A.) derived from a skin pigment of C57BL/6 was used. Culturing was made under the condition of 37° C., 5% CO2 of a DMEM medium containing 10% placenta serum, 100 nM 12-O-tetradecanoylphorbol-13-acetate, and 1 nM Cholera Toxin. The test materials were treated in the manner where the cultured Mel-Ab cell was isolated with 0.25% trypsin-EDTA, and inoculated again with the same number (1×10^5 cells/well) in the 24-well plate, and then the medium was replaced with a medium containing the test materials for two days from the second day. As the test materials, 5 ppm, 10 ppm, 25 ppm and 50 ppm of New Materials 31 and 32, 25 ppm, 50 ppm and 100 ppm of Kojic acids and DMSO (control) were used. After 5 days, the test materials were treated with 1N-NaOH to dissolve melanin contained in the cell, and the amount of melanin was measured by measuring absorbance at 400 nm. The concentration (IC50) of the material necessary for reducing melanogenesis of melanocyte by half was calculated, and the results are shown in following Table 4.

Each structure is given as a SMILES string.

With `C[C@@H]1O[C@@H](OC[C@H]2O[C@@H](Oc3c(-c4ccc(O)c(O)c4)oc4cc(O)cc(O)c4c3=O)[C@H](O)[C@@H](OC(=O)/C=C/c3ccc(O)cc3)[C@@H]2O)[C@H](O)[C@H](O[C@@H]2O[C@H](CO)[C@@H](O)[C@H](O)[C@H]2O)[C@H]1O` [New Material 31, quercetin3-O-[3-O″-(E)-p-coumaroyl][β-D-glucopyranosyl-(1→3)-O-α-L-rhamnopyranosyl-(1→6)-O-β-D-glucopyranoside]], the IC50 inhibiting melanogenesis amounted to 23.5 ppm. On to `C[C@@H]1O[C@@H](OC[C@H]2O[C@@H](Oc3c(-c4ccc(O)c(O)c4)oc4cc(O)cc(O)c4c3=O)[C@H](O)[C@@H](OC(=O)/C=C/c3ccc(O)cc3)[C@@H]2O)[C@H](O)[C@H](O)[C@H]1O` [New Material 32, quercetin3-O-[3-O″-(E)-p-coumaroyl][α-L-rhamnopyranosyl-(1→6)-O-β-D-glucopyranoside]], for which the IC50 inhibiting melanogenesis worked out at 23.5 ppm.
